From patent US8063088B2 (Hoffmann-La Roche Inc., priority 2008, dated 2011) come the findings set out here.

One experiment deals with T1, human LXR alpha (Homo sapiens, UniProt Q13133).
T1 construct: human LXR alpha (aa 164 to 447); unspecified tag ('tagged versions'); made in house; host or cells: E. coli BL21 (pLysS)
T1 sequence (Q13133 164-447): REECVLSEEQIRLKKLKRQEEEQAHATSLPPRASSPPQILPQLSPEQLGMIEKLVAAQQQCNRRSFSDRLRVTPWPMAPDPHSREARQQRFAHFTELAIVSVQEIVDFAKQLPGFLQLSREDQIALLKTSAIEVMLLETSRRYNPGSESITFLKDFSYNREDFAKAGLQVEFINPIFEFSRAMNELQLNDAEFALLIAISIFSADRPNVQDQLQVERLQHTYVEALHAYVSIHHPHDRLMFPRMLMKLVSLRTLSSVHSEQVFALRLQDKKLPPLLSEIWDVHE
Put plainly: Radioligand binding assay (SPA), LXR alpha LBD. The note with it: radioligand displacement, LXRα-LBD on SPA beads; read-out: LXRalpha Binding IC50. Here is the method:
(§1) The following tests were carried out in order to determine the activity of the compounds of the present invention. Background information on the performed assays can be found in: Nichols J S et al. “Development of a scintillation proximity assay for peroxisome proliferator-activated receptor gamma ligand binding domain”, Anal Biochem. 1998, 257: 112-119.
(§2) Mammalian expression vectors were constructed to express full-length human LXR alpha and LXR beta. Bacterial expression vectors were constructed to produce tagged versions of the ligand binding domains (LBD) of human LXR alpha (aa 164 to 447) and human LXR beta (aa 155 to 460). To accomplish this, the portions of the sequences encoding the LBDs were amplified from the full-length clones by PCR and then subcloned into the plasmid vectors. Final clones were verified by DNA sequence analysis (Willy et al., Genes Dev. 1995, 9:1033-45; Song et al., Proc Natl Acad Sci USA. 1994, 91:10809-13).
(§3) Induction, expression, and purification of LBD proteins were performed in E. coli strain BL21 (pLysS) cells by standard methods (Ref: Current Protocols in Molecular Biology, Wiley Press, edited by Ausubel et al).
(§4) Radioligand Binding Assay
(§5) LXR alpha and LXR beta receptor binding were assayed in buffer consisting of 50 mM HEPES, pH 7.4, 10 mM NaCl, 5 mM MgCl2. For each 96-well reaction, 500 ng of LXRα-LBD or 700 ng of LXR beta-LBD proteins were bound to 80 μg or 40 μg SPA beads respectively, in a final volume of 50 μl by shaking. The resulting slurry was incubated for 1 h at RT and centrifuged for 2 min at 1300×g. The supernatant containing unbound protein was removed, and the semi-dry pellet containing the receptor-coated beads was re-suspended in 50 μl of buffer. Radioligand (eg. 100,000 dpm of (N-(2,2,2-trifluoroethyl)-N-[4-(2,2,2-trifluoro-1-hydroxy-1-trifluoromethylethyl)-phenyl]-benzenesulfonamide)) was added, and the reaction incubated at RT for 1 h in the presence of test compounds, and then scintillation proximity counting was performed. All binding assays were performed in 96-well plates and the amount of bound ligand was measured on a Packard TopCount using OptiPlates (Packard). Dose response curves were measured within a range of concentration from 10^−10 M to 10^−4 M.
On the technique in general: Displacement assays read how much labelled ligand stays bound in the presence of the test substance.

A further experiment addresses T2, human LXR beta (Homo sapiens, UniProt P55055).
T2 construct: human LXR beta (aa 155 to 460); unspecified tag ('tagged versions'); made in house; host or cells: E. coli BL21 (pLysS)
T2 sequence (P55055 155-460): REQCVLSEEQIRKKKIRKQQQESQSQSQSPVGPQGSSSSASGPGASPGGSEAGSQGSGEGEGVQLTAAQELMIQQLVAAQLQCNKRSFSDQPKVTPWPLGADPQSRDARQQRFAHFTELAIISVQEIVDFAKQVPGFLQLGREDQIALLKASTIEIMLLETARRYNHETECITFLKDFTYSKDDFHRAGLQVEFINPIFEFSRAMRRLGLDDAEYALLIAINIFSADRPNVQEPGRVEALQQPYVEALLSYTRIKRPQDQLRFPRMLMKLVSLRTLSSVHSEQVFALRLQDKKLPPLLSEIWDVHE
Put plainly: Radioligand binding assay (SPA), LXR beta LBD. To be noted: radioligand displacement, LXR beta-LBD on SPA beads; read-out: LXRbeta Binding IC50. Here is the method:
as §1, §2, §3, §4, §5

SMILES strings stand for the structures.

`CS(=O)(=O)c1cccc(-c2cccc(C3CN(S(=O)(=O)c4ccccc4)CC(=O)N3c3ccccc3)c2)c1` (centres unmarked) [Example 33, 4-Benzenesulfonyl-6-(3′-methanesulfonyl-biphenyl-3-yl)-1-phenyl-piperazin-2-one]: the IC50 on human LXR alpha worked out at 52.7 µM; on human LXR beta, 0.53 µM.

As to `CS(=O)(=O)c1cccc(-c2cccc(C3CN(S(=O)(=O)c4ccccc4)CCN3c3ccccc3)c2)c1` (centres unmarked) [Example 34, 4-Benzenesulfonyl-2-(3′-methanesulfonyl-biphenyl-3-yl)-1-phenyl-piperazine], the half-inhibitory concentration (IC50) at human LXR alpha is 0.056 µM; on human LXR beta it was 0.002 µM.

Take `NCc1cccc(-c2cccc(C3CN(S(=O)(=O)c4ccccc4)CCN3c3ccccc3)c2)c1` (centres unmarked) [Example 35, C-[3′-(4-Benzenesulfonyl-1-phenyl-piperazin-2-yl)-biphenyl-3-yl]-methylamine]: the 50% inhibitory concentration (IC50) on human LXR alpha came out at 2.62 µM; on human LXR beta, 0.425 µM.

Regarding `Cc1ccc(C)c(-c2cccc(C3CN(C(=O)OC(C)(C)C)CCC3c3ccccc3)c2)c1` (stereo not drawn) [Example 40, trans-3-(2′,5′-Dimethyl-biphenyl-3-yl)-4-phenyl-piperidine-1-carboxylic add tert-butyl ester], the IC50 at human LXR alpha was determined as 44.1 µM; at human LXR beta, 19.3 µM.

Turning to `Cc1ccccc1N1CCN(C(=O)OC(C)(C)C)CC1c1cccc(-c2cccc(S(C)(=O)=O)c2)c1` (centres unmarked) [Example 48, 3-(3′-Methanesulfonyl-biphenyl-3-yl)-4-o-tolyl-piperazine-1-carboxylic acid tert-butyl ester], the concentration for half-maximal inhibition (IC50) was 5.53 µM at human LXR alpha and 0.355 µM on human LXR beta.

For the compound `Cc1ccccc1N1CCN(C(=O)OC(C)(C)C)CC1c1cccc(-c2cncc(S(C)(=O)=O)c2)c1` (centres unmarked) [Example 49, 3-[3-(5-Methanesulfonyl-pyridin-3-yl)-phenyl]-4-o-tolyl-piperazine-1-carboxylic acid tert-butyl ester], the half-maximal inhibitory concentration (IC50) at human LXR alpha was found to be 8.88 µM; at human LXR beta, 3.75 µM.

As for `Cc1ccccc1N1CCN(S(=O)(=O)c2ccccc2)CC1c1cccc(-c2cccc(S(C)(=O)=O)c2)c1` (centres unmarked) [Example 50, 4-Benzenesulfonyl-2-(3′-methanesulfonyl-biphenyl-3-yl)-1-o-tolyl-piperazine], the concentration for half-maximal inhibition (IC50) turned out to be 12.3 µM on human LXR alpha and 0.165 µM at human LXR beta.

By IC50 is commonly meant the concentration that inhibits the measured activity by half.
